Test results reported in patent publication US8901168B2 (priority 2007, dated 2014).

Tested on: anti-TT antibodies
Set-up: species or system BALB/c mice
Settings: mouse, in vivo

Row | Structure (SMILES) | anti-TT Ig titres | anti-TT antibody titres after the third vaccination vs α-T treated mice | anti-TT antibody titres after the third vaccination, ranking of groups | antibody titres after the third immunisation as compared to first immunisation
1 | Cc1c(C)c2c(c(C)c1O)CC[C@@](C)(CCC[C@H](C)CCC[C@H](C)CCCC(C)C)O2 [α-T, α-tocopherol] | significantly (P<0.05) enhanced |  |  | 
2 | CC(C)=CCC/C(C)=C/CC/C(C)=C/CC[C@]1(C)CCc2cc(O)cc(C)c2O1 [δ-T3, δ-tocotrienol] | significantly (P<0.05) enhanced | significantly (P<0.01) higher | highest | highly significant (P<0.01) antibody titres
